According to US8222202B2 (priority 2006, dated 2012):
Like-named read-outs stand apart in the source and are kept apart here. Starred links: 1 amine or outer side, 2 acyl side, 3 side chain; linkers in the order of their positions; H or OH if unused. Positions of bridges follow the written chain, without caps; N, C: chain ends. Non-standard residues stand in square brackets, D forms with d. Residues, ends and D or L forms follow the SMILES beside them. Orn(Me) = CN(CCC[C@H](N[*:1])C(=O)[*:2])[*:3]; Ala(2-furyl) = N[C@@H](Cc1ccco1)C(=O)O; X2 = CONC(=O)CC[C@H](N[*:1])C(=O)[*:2]; Orn(iPr) = CC(C)NCCC[C@H](N)C(=O)O; X1 = CCNCCC[C@H](N[*:1])C(=O)[*:2]; Orn(Pr) = CCCNCCC[C@H](N)C(=O)O; 2Thi = N[C@@H](Cc1cccs1)C(=O)O; 3Thi = N[C@@H](Cc1ccsc1)C(=O)O; Aad = N[C@@H](CCCC(=O)O)C(=O)O; Orn = NCCC[C@H](N)C(=O)O; Dab = NCC[C@H](N)C(=O)O

Legend:
hV1a receptor = biological target: T1, hV1a receptor (Homo sapiens, UniProt P37288); assay: hV1a receptor transcriptional reporter (luciferase) agonist assay; assay type: cell-based
T1 construct: expressed in transfected cells; host or cells: HEK-293
Method: (§1) Agonist activity of compounds on the hV1a receptor was determined in a transcriptional reporter assay by transiently transfecting a hV1a receptor expression DNA into HEK-293 cells in concert with a reporter DNA containing intracellular calcium responsive promoter elements regulating expression of firefly luciferase. See Boss, V., Talpade, D. J., Murphy, T. J. J. Biol. Chem. 1996, May 3; 271(18), 10429-10432 for further guidance on this assay. […] To determine selectivity, compounds were tested in luciferase-based transcriptional reporter assays expressing the human oxytocin (hOT) receptor. Assays for other receptors (hV2, hV1b, rat V1a and rat V2) were also conducted.
(§2) The EC50 value given is the geometric mean expressed in nanomol/L (nM). Selectivity values are given as EC50 ratios.

[1] = system: anaesthetised Sprague-Dawley male rats; assay: in vivo duration of action, blood pressure test in anaesthetised rats; parameters: species or system rat; conditions: ratio of decay rate of diastolic blood pressure response, AVP 0.1 nmol/kg i.v. to equieffective dose of compound; dibenamine-pretreated rats
Method: Blood pressure tests were carried out on anaesthetised Sprague-Dawley male rats (weighing 270-300 g) with catheterised jugular vein and carotid artery. The catheterised carotid artery was used to continuously monitor blood pressure and the jugular vein was used for administration of the compounds tested. Rats received intravenous injections of dibenamine prior to dosing to enhance their responsiveness to V1a receptor agonists (cf. Dekanski, J., Br. J. Pharmacol. 1952, 7, 567-572). […] Dosing intervals were set as time for the blood pressure to decrease to a stable baseline.
Determination of duration of action was based on the decay rate of diastolic arterial blood pressure transient increase. Specifically, for an exponential decay of plasma concentration, it can be shown that, if the response is measured beyond the distribution phase, the rate of decay near the EC50 is linear and inversely proportional to the elimination half-life (Rowland, M. and Tozer, T. in “Clinical Pharmacokinetics, Concepts and Applications”, 3rd ed., Lippincott Williams & Wilkins, Philadelphia, 1995).

[2] = biological target: T2, human oxytocin (hOT) receptor (Homo sapiens, UniProt P30559); assay: luciferase-based transcriptional reporter assay, selectivity hOT versus hV1a; assay type: cell-based
T2 construct: expressed in transfected cells
T2 sequence (P30559 1-389): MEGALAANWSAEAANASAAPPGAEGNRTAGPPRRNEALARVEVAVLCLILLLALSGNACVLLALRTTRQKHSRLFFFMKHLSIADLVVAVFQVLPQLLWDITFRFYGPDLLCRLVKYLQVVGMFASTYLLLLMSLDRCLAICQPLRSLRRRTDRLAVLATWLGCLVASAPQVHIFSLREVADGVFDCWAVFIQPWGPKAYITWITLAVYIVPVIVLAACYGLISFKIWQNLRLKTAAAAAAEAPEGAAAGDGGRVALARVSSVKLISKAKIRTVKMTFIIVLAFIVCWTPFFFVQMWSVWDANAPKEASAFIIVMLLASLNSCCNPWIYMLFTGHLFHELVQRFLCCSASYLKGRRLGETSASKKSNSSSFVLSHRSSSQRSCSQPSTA
Method: as §1, §2

[3] = HEK-293 cells transiently transfected with hV1a receptor, 5 hours exposure, geometric mean, read-out: EC50 hV1a receptor
[4] = class symbol, agonist efficacy at hOT receptor compared to AVP

T1 sequence (P37288 whole entry): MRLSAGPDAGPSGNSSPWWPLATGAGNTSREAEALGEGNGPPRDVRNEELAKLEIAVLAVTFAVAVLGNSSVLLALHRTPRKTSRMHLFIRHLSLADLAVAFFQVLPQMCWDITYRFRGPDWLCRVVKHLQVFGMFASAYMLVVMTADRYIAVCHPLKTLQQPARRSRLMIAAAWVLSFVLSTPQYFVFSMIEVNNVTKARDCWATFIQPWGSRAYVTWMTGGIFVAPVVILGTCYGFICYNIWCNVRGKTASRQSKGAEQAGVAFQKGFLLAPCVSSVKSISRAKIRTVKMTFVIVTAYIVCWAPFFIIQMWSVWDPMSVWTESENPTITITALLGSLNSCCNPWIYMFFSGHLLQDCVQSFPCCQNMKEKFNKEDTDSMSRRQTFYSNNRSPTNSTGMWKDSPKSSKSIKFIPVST

| SMILES | EC50 (hV1a receptor) [nM] | in vivo duration relative to AVP [1] | selectivity hOT/hV1a [2] | selectivity hOT/hV1a ([2]; EC50 ratio) | EC50 (hV1a receptor; [3]) [nM] | selectivity hOT/hV1a [2, 4] |
| --- | --- | --- | --- | --- | --- | --- |
| CC[C@H](C)[C@@H]1NC(=O)[C@H](Cc2ccccc2)NC(=O)[C@@H](N)CSSC[C@@H](C(=O)N2CCC[C@H]2C(=O)N[C@@H](CCN)C(=O)NCC(N)=O)NC(=O)[C@H](CC(N)=O)NC(=O)[C@H](CC(N)=O)NC1=O [Compound 3] (H-CFINNCP[Dab]G-NH2; disulfide 1-6) | 1.47 | 1.7 | + (key: +: selective hV1a receptor agonist; EC50 hOT/hV1a ratio not determined due to very low agonist efficacy (<30% compared to AVP) at the hOT receptor) |  |  |  |
| CC[C@H](C)[C@@H]1NC(=O)[C@H](Cc2ccccc2)NC(=O)[C@@H](N)CSSC[C@@H](C(=O)N2CCC[C@H]2C(=O)N[C@@H](CCCNC(C)C)C(=O)NCC(N)=O)NC(=O)[C@H](CC(N)=O)NC(=O)[C@H](CCC(N)=O)NC1=O [Compound 5] (H-CFIQNCP[Orn(iPr)]G-NH2; disulfide 1-6; N-terminus and C-terminus assumed) | 0.25 | 1.9 |  | 117 |  |  |
| CCNCCC[C@H](NC(=O)[C@@H]1CCCN1C(=O)[C@@H]1CSSC[C@H](N)C(=O)N[C@@H](Cc2ccccc2)C(=O)N[C@@H]([C@@H](C)CC)C(=O)N[C@@H](CCC(N)=O)C(=O)N[C@@H](CC(N)=O)C(=O)N1)C(=O)NCC(N)=O [Compound 6] (H-CFIQNCP[X1]G-NH2; disulfide 1-6; N-terminus and C-terminus assumed) | 0.29 | 1.9 |  | 86 |  |  |
| CC[C@H](C)[C@@H]1NC(=O)[C@H](Cc2ccccc2)NC(=O)[C@@H](N)CSSC[C@@H](C(=O)N2CCC[C@H]2C(=O)N[C@@H](CCCN)C(=O)NCC(N)=O)NC(=O)[C@H](CC(N)=O)NC(=O)[C@H](CCCC(N)=O)NC1=O [Compound 9] (H-CFI[Aad](NH2)NCP[Orn]G-NH2; disulfide 1-6) | 0.68 | 1.5 | + (key: +: selective hV1a receptor agonist; EC50 hOT/hV1a ratio not determined due to very low agonist efficacy (<30% compared to AVP) at the hOT receptor) |  |  |  |
| CC[C@H](C)[C@@H]1NC(=O)[C@H](Cc2ccccc2)NC(=O)[C@@H](N)CSSC[C@@H](C(=O)N2CCC[C@H]2C(=O)N[C@@H](CCCN)C(=O)NCC(N)=O)NC(=O)[C@H](CC(N)=O)NC(=O)[C@H](CCC(=O)NOC)NC1=O [Compound 10] (H-CFI[X2]NCP[Orn]G-NH2; disulfide 1-6; N-terminus and C-terminus assumed) |  | 2.3 |  | 11 | 1.15 |  |
| CC[C@H](C)[C@@H]1NC(=O)[C@H](Cc2ccccc2)NC(=O)[C@@H](N)CSSC[C@@H](C(=O)N2CCC[C@H]2C(=O)N[C@@H](CCN)C(=O)NCC(N)=O)NC(=O)[C@H](CC(N)=O)NC(=O)[C@H](CCCC(N)=O)NC1=O [Compound 11] (H-CFI[Aad](NH2)NCP[Dab]G-NH2; disulfide 1-6) | 2.96 | 1.9 | + (key: +: selective hV1a receptor agonist; EC50 hOT/hV1a ratio not determined due to very low agonist efficacy (<30% compared to AVP) at the hOT receptor) |  |  |  |
| CC[C@H](C)[C@@H]1NC(=O)[C@H](Cc2ccsc2)NC(=O)[C@@H](N)CSSC[C@@H](C(=O)N2CCC[C@H]2C(=O)N[C@@H](CCN)C(=O)NCC(N)=O)NC(=O)[C@H](CC(N)=O)NC(=O)[C@H](CCC(N)=O)NC1=O [Compound 15] (H-C[3Thi]IQNCP[Dab]G-NH2; disulfide 1-6) |  | 2.2 |  | 43 | 0.61 |  |
| CC[C@H](C)[C@@H]1NC(=O)[C@H](Cc2ccccc2)NC(=O)[C@@H](N)CSSC[C@@H](C(=O)N2CCC[C@H]2C(=O)N[C@@H](CCCN)C(=O)NCC(N)=O)NC(=O)[C@H](CC(N)=O)NC(=O)[C@H](CCC(=O)NC)NC1=O [Compound 19] (H-CFIE(NHMe)NCP[Orn]G-NH2; disulfide 1-6) |  | 1.6 |  |  | 5.99 | + (selective hV1a receptor agonist; EC50 hOT/hV1a ratio not determined due to very low agonist efficacy (<30% compared to AVP) at the hOT receptor) |
| CC[C@H](C)[C@@H]1NC(=O)[C@H](Cc2ccco2)NC(=O)[C@@H](N)CSSC[C@@H](C(=O)N2CCC[C@H]2C(=O)N[C@@H](CCCN)C(=O)NCC(N)=O)NC(=O)[C@H](CC(N)=O)NC(=O)[C@H](CCC(N)=O)NC1=O [Compound 25] (H-C[Ala(2-furyl)]IQNCP[Orn]G-NH2; disulfide 1-6) | 1.4 | 2.0 | 23 |  |  |  |
| CC[C@H](C)[C@@H]1NC(=O)[C@H](Cc2ccco2)NC(=O)[C@@H](N)CSSC[C@@H](C(=O)N2CCC[C@H]2C(=O)N[C@@H](CCN)C(=O)NCC(N)=O)NC(=O)[C@H](CC(N)=O)NC(=O)[C@H](CCC(N)=O)NC1=O [Compound 26] (H-C[Ala(2-furyl)]IQNCP[Dab]G-NH2; disulfide 1-6; N-terminus and C-terminus assumed) |  | 2.0 |  | 28 | 2.24 |  |
| CC[C@H](C)[C@@H]1NC(=O)[C@H](Cc2ccccc2)NC(=O)[C@@H](N)CSSC[C@@H](C(=O)N2CCC[C@H]2C(=O)N[C@@H](CCCN)C(=O)NCC(N)=O)NC(=O)[C@H](CC(N)=O)NC(=O)[C@H](CC(N)=O)NC1=O [Compound 30] (H-CFINNCP[Orn]G-NH2; disulfide 1-6; N-terminus and C-terminus assumed) |  | 1.7 |  |  | 1.45 | + (selective hV1a receptor agonist; EC50 hOT/hV1a ratio not determined due to very low agonist efficacy (<30% compared to AVP) at the hOT receptor) |
| CC[C@H](C)[C@@H]1NC(=O)[C@H](Cc2cccs2)NC(=O)[C@@H](N)CSSC[C@@H](C(=O)N2CCC[C@H]2C(=O)N[C@@H](CCCNC(C)C)C(=O)NCC(N)=O)NC(=O)[C@H](CC(N)=O)NC(=O)[C@H](CCC(N)=O)NC1=O [Compound 34] (H-C[2Thi]IQNCP[Orn(iPr)]G-NH2; disulfide 1-6) | 0.73 | 2.0 | 72 |  |  |  |
| CC[C@H](C)[C@@H]1NC(=O)[C@H](Cc2ccccc2)NC(=O)[C@@H](N)CSSC[C@@H](C(=O)N2CCC[C@H]2C(=O)N[C@@H](CCCNC)C(=O)NCC(N)=O)NC(=O)[C@H](CC(N)=O)NC(=O)[C@H](CCC(N)=O)NC1=O [Compound 39] (H-CFIQNCP[Orn(Me)]G-NH2; disulfide 1-6; N-terminus and C-terminus assumed) | 0.21 | 1.9 |  | 178 |  |  |
| CCCNCCC[C@H](NC(=O)[C@@H]1CCCN1C(=O)[C@@H]1CSSC[C@H](N)C(=O)N[C@@H](Cc2ccccc2)C(=O)N[C@@H]([C@@H](C)CC)C(=O)N[C@@H](CCC(N)=O)C(=O)N[C@@H](CC(N)=O)C(=O)N1)C(=O)NCC(N)=O [Compound 40] (H-CFIQNCP[Orn(Pr)]G-NH2; disulfide 1-6; N-terminus and C-terminus assumed) | 0.27 | 2.0 |  | 88 |  |  |
| CC[C@H](C)[C@@H]1NC(=O)[C@H](Cc2ccccc2)NC(=O)[C@@H](N)CSSC[C@@H](C(=O)N2CCC[C@H]2C(=O)N[C@@H](CCCNC(C)C)C(=O)NCC(N)=O)NC(=O)[C@H](CC(N)=O)NC(=O)[C@H](CC(N)=O)NC1=O [Compound 41] (H-CFINNCP[Orn(iPr)]G-NH2; disulfide 1-6) | 0.98 | 2.6 | 53 |  |  |  |
| CC[C@H](C)[C@@H]1NC(=O)[C@H](Cc2ccccc2)NC(=O)[C@@H](N)CSSC[C@@H](C(=O)N2CCC[C@H]2C(=O)N[C@@H](CCCNC)C(=O)NCC(N)=O)NC(=O)[C@H](CC(N)=O)NC(=O)[C@H](CC(N)=O)NC1=O [Compound 46] (H-CFINNCP[Orn(Me)]G-NH2; disulfide 1-6; N-terminus and C-terminus assumed) |  | 2.1 |  |  | 2.41 | + (selective hV1a receptor agonist; EC50 hOT/hV1a ratio not determined due to very low agonist efficacy (<30% compared to AVP) at the hOT receptor) |
